{"source": "patent US20150065556A1", "about": "“THERAPEUTIC TARGETS FOR MITOCHONDRIAL DISORDERS” (Whitehead Institute for Biomedical Research, priority 2013, published 2015)", "key": {"[1]": {"system": "KBM7 cells", "assay": "Viability/proliferation of wild type and ATPIF1 null KBM7 cells treated with mitochondrial poisons (7-AAD, FACS)", "assay_type": "cell-based, human", "details": "for resistance of ATPIF1 null KBM7 cells to the poison: viability four days later, 7-AAD, FIG. 1C-D, FIG. 2; for viability of ATPIF1 KO vs WT KBM7 cells in response to ETC inhibitors: 7AAD, FIG. 8A", "source_text": "In order to identify potential drug targets for treatment of mitochondrial disorders, we decided to use inhibitors of oxidative phosphorylation (OXPHOS) to model mitochondrial diseases and search for genes, loss-of-function of which can confer resistance to mitochondrial dysfunction caused by the poison. To that end, we explored use of a screening platform based on gene inactivation in human cells using insertional mutagenesis that has recently been developed using the KBM7 CML cell line, which is haploid for all chromosomes except chromosome 8 (5). In this system, insertional mutagenesis is accomplished using a gene trap vector. […]\nFor the viability assays described in this Example and Example 2, 200,000 cells were used for each sample. Cells were treated with the desired concentration of drug and viability was assessed four days later using 7-AAD and FACS analysis.\n(§1) Suspension cells were kept on ice, then spun at 4000 rpm for 5 minutes at 4° C. in a table-top microcentrifuge, supernatant aspirated, cells washed once with ice-cold PBS, resuspended in ice-cold PBS with 2 ug/mL 7-AAD viability dye, incubated for 5 minutes on ice, and analyzed by FACS. For adherent cells, the overlying media and PBS used for pre-trypsinization washes was collected and combined with the suspension of trypsinized cells to gather any dead cells that may have detached into the media. The cell suspensions were kept on ice, spun at 1500 rpm for 5 minutes at 4° C. in a swinging bucket centrifuge, supernatant aspirated, cells washed once with ice-cold PBS, resuspended in ice-cold PBS with 2 ug/mL 7-AAD viability dye, incubated for 5 minutes on ice, and analyzed by FACS. Viability was assessed by 7-AAD exclusion. For HeLa, SH-SY5Y, and Malme-3M cells, 500-2,000 cells were seeded per well of white, clear-bottom 96-well plates (Greiner Bio-One), treated with drugs, and then analyzed using CellTiter-Glo according to the manufacturer's instructions (Promega). For primary hepatocytes, 100,000 cells were seeded per well of a 24-well TPP plate (Light Labs), treated with antimycin, and then analyzed using CellTiter-Glo."}, "[2]": {"system": "KBM7 cells", "assay": "ddI-induced mtDNA depletion in WT and IF1 KO KBM7 cells (proliferation, mtDNA copy number, ATPIF1 protein)", "assay_type": "cell-based, human", "source_text": "mtDNA was extracted using a QiaAmp DNA Mini Kit (Qiagen) and primers specific to the mitochondrial gene ND1 and the nuclear gene Actb were used in conjunction with a SyBr Green Kit (AB) according to the manufacturer's instructions. The ratio of ND1 copies to Actb copies was used to assess the relative mtDNA/nuclear DNA copy numbers between different samples. In some experiments primers targeting the mitochondrial gene ND1 and the nuclear gene RUNX2 were used to assess mtDNA copy number by normalizing ct values of ND1 to those of RUNX2: ND1_F, CCCTAAAACCCGCCACATCT (SEQ ID NO. 14); ND1_R, GAGCGATGGTGAGAGCTAAGGT (SEQ ID NO. 15); RUNX2_F, CGCATTCCTCATCCCAGTATG (SEQ ID NO. 16); RUNX2_R, AAAGGACTTGGTGCAGAGTTCAG (SEQ ID NO. 17). Relative differences between samples were determined using the comparative Ct method.\nKBM7 cells were cultured in IMDM supplemented with 10% IFS and penicillin/streptomycin, except for studies using tigecycline in which they were cultured in RPMI-1640. SH-SY5Y, HeLa, Malme-3M cells were cultured in DMEM supplemented with 10% FBS and penicillin/streptomycin. HeLa WT, HeLa ρ^0, and KBM7 cells used for ddI experiments were grown in DMEM supplemented with 10% FBS, penicillin/streptomycin, and 100 μg/mL uridine. Primary hepatocytes were cultured in Medium 199 supplemented with 10% FBS, penicillin/streptomycin, and GlutaMAX. KBM7, HeLa WT, and HeLa ρ^0 cells stably overexpressing ATPIF1 (WT or E55A) were generated via infection with retroviruses and selected with blasticidin (10 μg/mL) for three days. Malme-3M cells stably overexpressing RAP2A or ATPIF1 were generated by infection with lentiviruses expressing the corresponding cDNAs, followed by selection with puromycin (2 μg/mL) for three days. KBM7, SH-SY5Y, and HeLa cells expressing shLuc or shATPIF1 were generated by infection with lentiviruses expressing the corresponding shRNAs. All cells were infected with spin-infection using a 30 minute spin at 2,250 rpm in media containing polybrene (4 μg/mL), followed by selection one day later.\nFailure to maintain proper amounts of the mitochondrial genome is a distinctive feature of a class of severe respiratory chain disorders known as mtDNA depletion syndromes (Lee and Sokol, 2007). Because of our interest in ATPIF1 inhibition as a potential strategy for ameliorating severe ETC dysfunction, we asked if loss of ATPIF1 alone was sufficient to improve cell viability during progressive mtDNA depletion. To do this, we exposed WT and IF1 KO KBM7 cells for 50 days to the drug 2′,3′-dideoxyinosine (ddI), an inhibitor of mtDNA replication, which depletes cells of their mtDNA (Lewis et al., 2003; Walker et al., 2002)."}, "[3]": {"system": "KBM7 cells", "assay": "Mitochondrial membrane potential (TMRM staining, FACS) in WT and ATPIF1 KO KBM7 cells", "assay_type": "cell-based, human", "description": "Membrane potential was assessed using tetramethyl rhodamine methyl ester (TMRM). For the TMRM time course: 200,000 cells were used for each time point. Cells were treated with 121 uM antimycin and incubated in 25 nM TMRM (final concentration) in IMDM 20 minutes from the end of their time point at 37° C. and then analyzed by FACS analysis. Dead cells were excluded using 7-AAD.\n200,000 cells were stained with 25 nM TMRM dye (Invitrogen) in parent media of cells. In the case of adherent cells, 10 uM verapamil (Sigma-Aldrich) was added to help retention of the dye. For suspension cells, the incubation of the dye was done for 30 minutes at 37° C., whereas for adherent cells, the incubation was done for 1 hour at 37° C. Suspension cells were kept on ice, then spun at 4000 rpm for 5 minutes at 4° C. in a table-top microcentrifuge, supernatant aspirated, cells washed once with ice-cold PBS, resuspended in ice-cold PBS with 2 ug/mL 7-AAD viability dye, incubated for 5 minutes on ice, and analyzed by FACS. Only 7-AAD negative live cells were analyzed. Adherent cells were first trypsinized, kept on ice, spun at 4000 rpm for 5 minutes at 4° C. in a table-top microcentrifuge, supernatant aspirated, cells washed once with ice-cold PBS, resuspended in ice-cold PBS with 2 ug/mL 7-AAD viability dye, incubated for 5 minutes on ice, and analyzed by FACS. Only 7-AAD negative live cells were analyzed.\n(§2) FACS assays. For measurements of ΔΨm, 100,000 cells were incubated with TMRM (25 nM) and the indicated amounts of drugs for the indicated amounts of time before collection. For measurements of mitochondrial mass, 100,000 cells were incubated with MitoTracker Green FM (50 nM) for one hour. For primary hepatocytes, cells were assayed in suspension immediately after harvest from the liver and incubated with verapamil (20 μM) to facilitate retention of TMRM and MitoTracker Green FM signals. Afterwards, cells were collected by centrifugation, washed once with PBS, and resuspended in PBS with 7-AAD (2 μg/mL) for analysis. KBM7 cells and primary hepatocytes were centrifuged at 2000 rpm for 5 minutes and 500 rpm for 5 minutes at 4° C., respectively."}, "[4]": {"system": "KBM7 cells", "assay": "Cellular ATP (CellTiterGlo) in WT and ATPIF1 KO KBM7 cells", "assay_type": "cell-based, human", "description": "(§3) Equal numbers of cells were plated and ATP was determined using a CellTiterGlo assay (Promega) according to the manufacturer's instructions."}, "[5]": {"system": "KBM7 cells", "assay": "Metabolite profiling of WT and IF1 KO KBM7 cells after antimycin treatment", "assay_type": "cell-based, human", "details": "after 1 hour of antimycin treatment; FIG. 7D as printed", "description": "4 million KBM7 cells were centrifuged at 1500 rpm for 4 minutes at 4° C. in a swinging bucket centrifuge after the desired drug treatments. The supernatant was decanted and the cell pellet kept on dry ice. Each cell pellet was washed twice with ice-cold PBS. 3 mL of 80% ice-cold MeOH was then added to each pellet and the pellet vigorously resuspended. Samples were then submitted to the Broad Institute Metabolomics Platform for further processing and analysis."}, "[6]": {"system": "Malme-3M cells", "assay": "Viability of Malme-3M cells overexpressing ATPIF1 treated with antimycin (CellTiter-Glo)", "assay_type": "cell-based", "details": "antimycin for 4 days; FIG. 7G", "description": "as §1, with “CellTiter-Glo. […]” for “CellTiter-Glo.”"}, "[7]": {"system": "primary hepatocytes", "assay": "ATP, ΔΨm and viability of WT and ATPIF1−/− primary hepatocytes treated with antimycin", "assay_type": "cell-based, mice", "description": "as §3, §1\nas §2, with “KBM7 cells and primary hepatocytes were centrifuged at 2000 rpm for 5 minutes and 500 rpm for 5 minutes at 4° C., respectively.” left out"}, "[8]": {"details": "initial days of ddI treatment (Early)"}}, "data": [{"molecule": "N#CC(C#N)=NNc1ccc(OC(F)(F)F)cc1", "note": "[FCCP, carbonylcyanide p-trifluoromethoxyphenylhydrazone]", "values": [{"measurement": "resistance of ATPIF1 null KBM7 cells to the poison", "setting": "[1]", "result": "resistant"}]}, {"molecule": "C[n+]1ccc(-c2ccccc2)cc1", "note": "[MPP+, 1-methyl-4-phenylpyridinium]", "values": [{"measurement": "viability of ATPIF1 KO vs WT KBM7 cells in response to ETC inhibitors", "setting": "[1]", "result": "cells lacking ATPIF1 have increased viability as compared to wild type cells"}]}, {"molecule": "O=C(CC(=O)C(F)(F)F)c1cccs1", "note": "[TTFA]", "values": [{"measurement": "resistance of ATPIF1 null KBM7 cells to the poison", "setting": "[1]", "result": "resistant"}]}, {"molecule": "OC[C@@H]1CC[C@H](n2cnc3c(O)ncnc32)O1", "note": "[ddI, 2′,3′-dideoxyinosine]", "values": [{"measurement": "mtDNA of WT and ATPIF1_KO KBM7 cells", "setting": "[2]; by about day 25 of ddI treatment (Middle)", "result": "trace amounts of mtDNA"}, {"measurement": "proliferation of ATPIF1_KO vs WT KBM7 cells", "setting": "[2]; ddI, Middle (days 19-34)", "result": "significantly faster rate of proliferation"}, {"measurement": "cell proliferation of WT and ATPIF1_KO KBM7 cells", "setting": "[2]; [8]", "result": "decrease in cell proliferation"}, {"measurement": "mtDNA copy number of WT and ATPIF1_KO KBM7 cells", "setting": "[2]; [8]", "result": "immediate decrease in mtDNA copy number"}, {"measurement": "ATPIF1 protein levels and activity of WT KBM7 cells", "setting": "[2]; long-term exposure to ddI, FIG. 8E", "result": "greatly reduced ATPIF1 protein levels and activity"}]}, {"molecule": "C/C=C(\\C)[C@H](O)[C@H](C)/C=C(C)/C=C/C/C(C)=C/Cc1nc(OC)c(OC)c(O)c1C", "note": "[piercidin A, Piericidin A]", "values": [{"measurement": "viability of ATPIF1 KO vs WT KBM7 cells in response to ETC inhibitors", "setting": "[1]", "result": "cells lacking ATPIF1 have increased viability as compared to wild type cells"}, {"measurement": "resistance of ATPIF1 null KBM7 cells to the poison", "setting": "[1]", "result": "resistant"}]}, {"molecule": "CN(C)c1cc(NC(=O)CNC(C)(C)C)c(O)c2c1C[C@H]1C[C@H]3[C@H](N(C)C)C(O)=C(C(N)=O)C(=O)[C@@]3(O)C(O)=C1C2=O", "note": "[tigecycline]", "values": [{"measurement": "viability of ATPIF1 KO vs WT KBM7 cells in response to ETC inhibitors", "setting": "[1]", "result": "cells lacking ATPIF1 have increased viability as compared to wild type cells"}]}, {"molecule": "antimycin A", "values": [{"measurement": "proliferation of clone 18 (ATPIF1 null) KBM7 cells", "setting": "[1]; antimycin A 121 μm, FIG. 1D", "result": "clone 18 cells continue proliferating"}, {"measurement": "proliferation of wild type KBM7 cells", "setting": "[1]; antimycin A 121 μm, FIG. 1D", "result": "wild type cells cease proliferating"}, {"measurement": "resistance of ATPIF1 null KBM7 cells to the poison", "setting": "[1]", "result": "marked resistance"}, {"measurement": "rescue by loss of ATPIF1 of the loss of mitochondrial membrane potential caused by the poison", "setting": "[3]; FIG. 4, TMRM", "result": "rescued (in part)"}, {"measurement": "MMP in IF1 KO KBM7 cells", "setting": "[3]; antimycin exposure, FIG. 7B", "result": "significant recovery in MMP after loss of MMP"}, {"measurement": "recovery of MMP in WT KBM7 cells", "setting": "[3]; antimycin exposure, FIG. 7B", "result": "WT cells did not"}, {"measurement": "ATP levels of ATPIF1 null vs WT KBM7 cells following antimycin treatment", "setting": "[4]; FIG. 3A", "result": "significantly lower levels of initial ATP compared to WT cells"}, {"measurement": "ATP levels in IF1 KO KBM7 cells", "setting": "[4]; antimycin exposure, FIG. 7B", "result": "decreased significantly"}, {"measurement": "ATP levels in WT KBM7 cells", "setting": "[4]; antimycin exposure, FIG. 7B", "result": "not in WT cells"}, {"measurement": "glycolytic metabolites (DHAP, glyceraldehyde 3P, F6P), IF1 KO vs WT KBM7 cells", "setting": "[5]", "result": "more depletion of glycolytic metabolites"}, {"measurement": "sensitivity of Malme-3M cells overexpressing ATPIF1", "setting": "[6]", "result": "increased their sensitivity to antimycin"}, {"measurement": "cellular ATP, ATPIF1−/− vs WT hepatocytes", "setting": "[7]; antimycin 0.625 μM for 1.5 hours, FIG. 11B", "result": "greater decrease in cellular ATP"}, {"measurement": "cell viability, ATPIF1−/− vs WT hepatocytes", "setting": "[7]; antimycin 1.25 μM for 2 days, FIG. 11D", "result": "increased cell viability relative to WT hepatocytes"}, {"measurement": "ΔΨm, ATPIF1−/− vs WT hepatocytes", "setting": "[7]; antimycin 10 μM for 1.5 hours, FIG. 11C", "result": "greater increase in ΔΨm"}]}]}
